Measurements from patent US9801889B2, “Bicyclic heterocycles as FGFR4 inhibitors” (Incyte Corporation, priority 2015, dated 2017).

How the values were obtained:
Conditions in all cases: IC50 ratio showing FGFR4 selectivity
FGFR1 = FGFR1 (Homo sapiens (Human), UniProt P11362); experiment: FGFR Enzymatic Assay (FRET peptide phosphorylation), FGFR1
Description: (§1) The enzymes were purchased from Millipore or Invitrogen.
(§2) GraphPad prism3 was used to analyze the data. The IC50 values were derived by fitting the data to the equation for a sigmoidal dose-response with a variable slope. Y=Bottom+(Top-Bottom)/(1+10^((LogIC50-X)*HillSlope)) where X is the logarithm of concentration and Y is the response.

FGFR3 = FGFR3 (Homo sapiens (Human), UniProt P22607); experiment: FGFR Enzymatic Assay (FRET peptide phosphorylation), FGFR3
Description: as §1, §2

FGFR2 = FGFR2 (Homo sapiens (Human), UniProt P21802); experiment: FGFR Enzymatic Assay (FRET peptide phosphorylation), FGFR2
FGFR2, sequence (P21802 22-821): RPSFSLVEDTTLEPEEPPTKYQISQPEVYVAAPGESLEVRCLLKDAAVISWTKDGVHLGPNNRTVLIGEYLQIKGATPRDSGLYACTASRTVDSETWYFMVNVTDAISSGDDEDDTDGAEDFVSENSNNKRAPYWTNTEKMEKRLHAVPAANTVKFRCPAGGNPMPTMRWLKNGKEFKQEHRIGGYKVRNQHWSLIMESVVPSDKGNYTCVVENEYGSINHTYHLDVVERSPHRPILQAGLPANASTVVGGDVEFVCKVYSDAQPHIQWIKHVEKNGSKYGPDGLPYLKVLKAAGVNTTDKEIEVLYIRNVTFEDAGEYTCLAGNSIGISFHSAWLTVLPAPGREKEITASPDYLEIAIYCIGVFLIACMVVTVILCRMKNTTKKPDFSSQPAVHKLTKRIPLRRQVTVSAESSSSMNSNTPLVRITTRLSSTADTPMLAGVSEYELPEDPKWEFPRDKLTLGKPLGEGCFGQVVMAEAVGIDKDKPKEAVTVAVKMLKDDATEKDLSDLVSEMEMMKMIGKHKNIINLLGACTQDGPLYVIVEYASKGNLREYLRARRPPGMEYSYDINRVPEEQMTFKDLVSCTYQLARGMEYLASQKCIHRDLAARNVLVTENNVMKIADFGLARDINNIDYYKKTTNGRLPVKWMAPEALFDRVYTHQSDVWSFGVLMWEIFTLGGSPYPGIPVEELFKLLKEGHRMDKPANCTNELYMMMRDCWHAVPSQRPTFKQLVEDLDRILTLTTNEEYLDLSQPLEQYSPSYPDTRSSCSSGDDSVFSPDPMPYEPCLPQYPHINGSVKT
Description: as §1, §2

[1] = pre-incubated for 5 to 10 minutes

FGFR1, sequence (P11362 22-822): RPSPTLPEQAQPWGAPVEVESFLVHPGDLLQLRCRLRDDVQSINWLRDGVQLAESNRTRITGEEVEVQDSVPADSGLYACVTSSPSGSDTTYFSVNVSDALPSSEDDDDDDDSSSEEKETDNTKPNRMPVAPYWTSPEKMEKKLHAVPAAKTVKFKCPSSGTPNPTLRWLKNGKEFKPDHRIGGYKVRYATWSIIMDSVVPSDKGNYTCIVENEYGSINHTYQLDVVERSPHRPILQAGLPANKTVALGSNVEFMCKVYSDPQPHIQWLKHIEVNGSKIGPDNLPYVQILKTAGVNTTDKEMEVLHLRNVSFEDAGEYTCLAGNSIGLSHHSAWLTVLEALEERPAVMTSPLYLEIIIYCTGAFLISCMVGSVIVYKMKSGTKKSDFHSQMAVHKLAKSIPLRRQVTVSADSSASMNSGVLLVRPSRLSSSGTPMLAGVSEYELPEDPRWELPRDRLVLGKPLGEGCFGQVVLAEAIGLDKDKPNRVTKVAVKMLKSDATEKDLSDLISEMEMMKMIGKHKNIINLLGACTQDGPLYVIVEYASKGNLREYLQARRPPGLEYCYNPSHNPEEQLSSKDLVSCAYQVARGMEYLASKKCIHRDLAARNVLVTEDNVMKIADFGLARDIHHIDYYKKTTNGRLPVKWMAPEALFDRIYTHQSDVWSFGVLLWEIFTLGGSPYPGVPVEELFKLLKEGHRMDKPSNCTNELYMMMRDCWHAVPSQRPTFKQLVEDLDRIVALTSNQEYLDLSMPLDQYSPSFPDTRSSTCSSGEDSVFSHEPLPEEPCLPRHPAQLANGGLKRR
FGFR3, sequence (P22607 23-806): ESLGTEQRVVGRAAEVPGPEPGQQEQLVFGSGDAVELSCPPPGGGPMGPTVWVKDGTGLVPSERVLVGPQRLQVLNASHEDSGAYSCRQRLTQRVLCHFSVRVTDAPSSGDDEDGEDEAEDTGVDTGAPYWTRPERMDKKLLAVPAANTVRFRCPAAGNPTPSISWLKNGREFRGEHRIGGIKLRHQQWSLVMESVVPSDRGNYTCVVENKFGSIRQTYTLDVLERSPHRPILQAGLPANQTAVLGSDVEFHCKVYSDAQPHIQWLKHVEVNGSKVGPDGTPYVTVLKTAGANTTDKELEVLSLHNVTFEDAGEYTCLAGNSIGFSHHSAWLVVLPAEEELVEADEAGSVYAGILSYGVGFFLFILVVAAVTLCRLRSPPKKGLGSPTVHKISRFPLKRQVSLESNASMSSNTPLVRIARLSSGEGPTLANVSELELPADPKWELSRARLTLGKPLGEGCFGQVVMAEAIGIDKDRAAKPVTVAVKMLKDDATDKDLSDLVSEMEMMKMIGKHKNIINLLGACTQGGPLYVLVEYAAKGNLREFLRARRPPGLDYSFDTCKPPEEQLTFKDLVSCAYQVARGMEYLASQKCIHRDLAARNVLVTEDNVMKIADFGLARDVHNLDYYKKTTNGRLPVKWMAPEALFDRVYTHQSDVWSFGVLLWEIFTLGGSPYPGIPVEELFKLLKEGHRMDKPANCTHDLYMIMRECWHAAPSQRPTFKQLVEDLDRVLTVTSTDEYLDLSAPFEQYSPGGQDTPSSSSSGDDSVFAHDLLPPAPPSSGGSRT

SMILES | FGFR1/FGFR4 (FGFR1; [1]) | FGFR1/FGFR4 (FGFR1; pre-incubated for 4 hours) | FGFR3/FGFR4 (FGFR3; [1]) | FGFR3/FGFR4 (FGFR3; pre-incubated for 4 hours) | FGFR2/FGFR4 (FGFR2; [1]) | FGFR2/FGFR4 (FGFR2; pre-incubated for 4 hours)
C=CC(=O)Nc1ccc(C)c(-c2cc3c(cn2)CN(c2c(F)c(OC)cc(OC)c2F)C(=O)C32CC2)c1 [Example 2, N-(3-(2′-(2,6-difluoro-3,5-dimethoxyphenyl)-3′-oxo-2′,3′-dihydro-1′H-spiro[cyclopropane-1,4′-[2,7]naphthyridine]-6′-yl)-4-methylphenyl)acrylamide] | >100 | >100 | >100 | >100 | >100 | >100
C=CC(=O)Nc1ccc(C#N)c(-c2cc3c(cn2)CN(c2c(F)c(OC)cc(OC)c2F)C(=O)C32CC2)c1 [Example 5, N-(4-cyano-3-(2′-(2,6-difluoro-3,5-dimethoxyphenyl)-3′-oxo-2′,3′-dihydro-1′H-spiro[cyclopropane-1,4′-[2,7]naphthyridine]-6′-yl)phenyl)acrylamide] | >100 | >100 | >100 | >100 | >100 | >100
C=CC(=O)Nc1cc(-c2cc3c(cn2)CN(c2c(F)c(OC)cc(OC)c2F)C(=O)C32CC2)c(C)cc1F [Example 6, N-(5-(2′-(2,6-difluoro-3,5-dimethoxyphenyl)-3′-oxo-2′,3′-dihydro-1′H-spiro[cyclopropane-1,4′-[2,7]naphthyridine]-6′-yl)-2-fluoro-4-methylphenyl)acrylamide] | >100 | >100 | >100 | >100 | >100 | >100
C=CC(=O)Nc1cnc(C)c(-c2cc3c(cn2)CN(c2c(F)c(OC)cc(OC)c2F)C(=O)C32CC2)c1 [Example 7, N-(5-(2′-(2,6-difluoro-3,5-dimethoxyphenyl)-3′-oxo-2′,3′-dihydro-1′H-spiro[cyclopropane-1,4′-[2,7]naphthyridine]-6′-yl)-6-methylpyridin-3-yl)acrylamide] | >100 | >100 | >100 | >100 | >100 | >100
C=CC(=O)N1CCCC(c2cc3c(cn2)CN(c2c(F)c(OC)cc(OC)c2F)C(=O)C32CC2)C1 (stereo not drawn) [Example 8, 6′-(1-acryloylpiperidin-3-yl)-2′-(2,6-difluoro-3,5-dimethoxyphenyl)-1′H-spiro[cyclopropane-1,4′-[2,7]naphthyridin]-3′(2′H)-one] | >5 | >10 | >1 | >2 | >1 | >2
C=CC(=O)Nc1cc(-c2cc3c(cn2)CN(c2c(F)c(OC)cc(OC)c2F)C(=O)C32CC2)cc(N2CCOCC2)c1 [Example 10, N-{3-[2′-(2,6-difluoro-3,5-dimethoxyphenyl)-3′-oxo-2′,3′-dihydro-1′H-spiro[cyclopropane-1,4′-[2,7]naphthyridin]-6′-yl]-5-morpholin-4-ylphenyl}acrylamide] | >100 | >100 | >100 | >100 | >100 | >100
C=CC(=O)Nc1cc(CN2CCOCC2)cc(-c2cc3c(cn2)CN(c2c(F)c(OC)cc(OC)c2F)C(=O)C32CC2)c1 [Example 11, N-[3-[2′-(2,6-difluoro-3,5-dimethoxyphenyl)-3′-oxo-2′,3′-dihydro-1′H-spiro[cyclopropane-1,4′-[2,7]naphthyridin]-6′-yl]-5-(morpholin-4-ylmethyl)phenyl]acrylamide] | >100 | >100 | >100 | >100 | >100 | >100
C=CC(=O)Nc1cc(-c2cc3c(cn2)CN(c2c(F)c(OC)cc(OC)c2F)C(=O)C32CC2)ccc1CN1CCOCC1 [Example 12, N-(5-(2′-(2,6-difluoro-3,5-dimethoxyphenyl)-3′-oxo-2′,3′-dihydro-1′H-spiro[cyclopropane-1,4′-[2,7]naphthyridine]-6′-yl)-2-(morpholinomethyl)phenyl)acrylamide] | >10 | >100 | >1 | >10 | >1 | >25
C=CC(=O)Nc1cn[nH]c1-c1cc2c(cn1)CN(c1c(F)c(OC)cc(OC)c1F)C(=O)C21CC1 [Example 14, N-(5-(2′-(2,6-difluoro-3,5-dimethoxyphenyl)-3′-oxo-2′,3′-dihydro-1′H-spiro[cyclopropane-1,4′-[2,7]naphthyridine]-6′-yl)-1H-pyrazol-4-yl)acrylamide] |  | >100 |  | >100 |  | >100
C=CC(=O)Nc1cnn(C2CCOCC2)c1-c1cc2c(cn1)CN(c1c(F)c(OC)cc(OC)c1F)C(=O)C21CC1 [Example 18, N-(5-(2′-(2,6-difluoro-3,5-dimethoxyphenyl)-3′-oxo-2′,3′-dihydro-1′H-spiro[cyclopropane-1,4′-[2,7]naphthyridine]-6′-yl)-1-(tetrahydro-2H-pyran-4-yl)-1H-pyrazol-4-yl)acrylamide] |  | >100 |  | >100 |  | >50

Second part, the compound after the results:

FGFR1/FGFR4 (FGFR1; [1]) | FGFR1/FGFR4 (FGFR1; pre-incubated for 4 hours) | FGFR3/FGFR4 (FGFR3; [1]) | FGFR3/FGFR4 (FGFR3; pre-incubated for 4 hours) | FGFR2/FGFR4 (FGFR2; [1]) | FGFR2/FGFR4 (FGFR2; pre-incubated for 4 hours) | SMILES
 | >100 |  | >100 |  | >100 | C=CC(=O)Nc1cnn(CCOC)c1-c1cc2c(cn1)CN(c1c(F)c(OC)cc(OC)c1F)C(=O)C21CC1 [Example 15, N-(5-(2′-(2,6-difluoro-3,5-dimethoxyphenyl)-3′-oxo-2′,3′-dihydro-1′H-spiro[cyclopropane-1,4′-[2,7]naphthyridine]-6′-yl)-1-(2-methoxyethyl)-1H-pyrazol-4-yl)acrylamide]
 | >100 |  | >100 |  | >100 | C=CC(=O)Nc1cnn(CCOCC)c1-c1cc2c(cn1)CN(c1c(F)c(OC)cc(OC)c1F)C(=O)C21CC1 [Example 16, N-(5-(2′-(2,6-difluoro-3,5-dimethoxyphenyl)-3′-oxo-2′,3′-dihydro-1′H-spiro[cyclopropane-1,4′-[2,7]naphthyridine]-6′-yl)-1-(2-ethoxyethyl)-1H-pyrazol-4-yl)acrylamide]
 | >100 |  | >100 |  | >100 | C=CC(=O)Nc1cnn(CCO)c1-c1cc2c(cn1)CN(c1c(F)c(OC)cc(OC)c1F)C(=O)C21CC1 [Example 17, N-(5-(2′-(2,6-difluoro-3,5-dimethoxyphenyl)-3′-oxo-2′,3′-dihydro-1′H-spiro[cyclopropane-1,4′-[2,7]naphthyridine]-6′-yl)-1-(2-hydroxyethyl)-1H-pyrazol-4-yl)acrylamide]
 | >100 |  | >100 |  | >100 | C=CC(=O)Nc1cnn(CCN2CCOCC2)c1-c1cc2c(cn1)CN(c1c(F)c(OC)cc(OC)c1F)C(=O)C21CC1 [Example 19, N-(5-(2′-(2,6-difluoro-3,5-dimethoxyphenyl)-3′-oxo-2′,3′-dihydro-1′H-spiro[cyclopropane-1,4′-[2,7]naphthyridine]-6′-yl)-1-(2-morpholinoethyl)-1H-pyrazol-4-yl)acrylamide]
 | >100 |  | >100 |  | >50 | C=CC(=O)Nc1cnn(Cc2ccncc2)c1-c1cc2c(cn1)CN(c1c(F)c(OC)cc(OC)c1F)C(=O)C21CC1 [Example 21, N-(5-(2′-(2,6-difluoro-3,5-dimethoxyphenyl)-3′-oxo-2′,3′-dihydro-1′H-spiro[cyclopropane-1,4′-[2,7]naphthyridine]-6′-yl)-1-(pyridin-4-ylmethyl)-1H-pyrazol-4-yl)acrylamide]
 | >100 |  | >100 |  | >100 | C=CC(=O)Nc1cnn(Cc2cccnc2)c1-c1cc2c(cn1)CN(c1c(F)c(OC)cc(OC)c1F)C(=O)C21CC1 [Example 22, N-(5-(2′-(2,6-difluoro-3,5-dimethoxyphenyl)-3′-oxo-2′,3′-dihydro-1′H-spiro[cyclopropane-1,4′-[2,7]naphthyridine]-6′-yl)-1-(pyridin-3-ylmethyl)-1H-pyrazol-4-yl)acrylamide]
 | >100 |  | >100 |  | >100 | C=CC(=O)Nc1cnn(Cc2ncn(C)n2)c1-c1cc2c(cn1)CN(c1c(F)c(OC)cc(OC)c1F)C(=O)C21CC1 [Example 23, N-(5-(2′-(2,6-difluoro-3,5-dimethoxyphenyl)-3′-oxo-2′,3′-dihydro-1′H-spiro[cyclopropane-1,4′-[2,7]naphthyridine]-6′-yl)-1-((1-methyl-1H-1,2,4-triazol-3-yl)methyl)-1H-pyrazol-4-yl)acrylamide]
 | >100 |  | >100 |  | >100 | C=CC(=O)Nc1cnn(CC2CCOCC2)c1-c1cc2c(cn1)CN(c1c(F)c(OC)cc(OC)c1F)C(=O)C21CC1 [Example 24, N-(5-(2′-(2,6-difluoro-3,5-dimethoxyphenyl)-3′-oxo-2′,3′-dihydro-1′H-spiro[cyclopropane-1,4′-[2,7]naphthyridine]-6′-yl)-1-((tetrahydro-2H-pyran-4-yl)methyl)-1H-pyrazol-4-yl)acrylamide]
 | >100 |  | >100 |  | >100 | C=CC(=O)Nc1cnn(Cc2ccon2)c1-c1cc2c(cn1)CN(c1c(F)c(OC)cc(OC)c1F)C(=O)C21CC1 [Example 25, N-(5-(2′-(2,6-difluoro-3,5-dimethoxyphenyl)-3′-oxo-2′,3′-dihydro-1′H-spiro[cyclopropane-1,4′-[2,7]naphthyridine]-6′-yl)-1-(isoxazol-3-ylmethyl)-1H-pyrazol-4-yl)acrylamide]
